Laboratory results: article PMC13227213, “Design of strictly orthogonal biosensors for maximizing renewable biofuel overproduction” (Journal of Advanced Research, 2025)

Tests used:
[1] = biological target: T1, BmoR W128R (Thauera butanivorans, UniProt A7MAQ9, W128R); assay: Whole-cell BmoR biosensor dose-response (GFP/OD600, Pbmo-gfp reporter) in 96-deep-well plates with 0-60 mM pentanols or 0-100 mM butanols, LB medium at 30 °C, fitted to the Michaelis-Menten equation.; type: cell-based, E. coli XL10-Gold; conditions: n = 3; read-out: Apparent Km
T1 construct: full-length BmoR, biosensor plasmid pWT-W128R (PbmoR-bmoR; Pbmo-gfp)
Description: (§1) The response values of the above colonies containing various BmoR mutants to n-pentanol, isopentanol, n-butanol or isobutanol were tested. The single colonies were pre-inoculated into 5 mL LB medium with 50 μg/mL carbenicillin and then cultured at 37 °C overnight. […] The excitation and emission wavelengths were set as 470 and 510 nm, respectively. The fluorescence values were normalized as the GFP/OD600 values. Besides, 1 mL of the culture was centrifuged at 5,000 rpm for 5 min. The supernatant was discarded, and the sediment was then resuspended in 2 mL of the physiological saline. 5 μL of the culture was spotted onto glass slides for fluorescence microscopy (UOP 2100). Fifteen colonies which only responded to 10 mM n-pentanol or isopentanol were screened out. The bmoRs in the 15 colonies were amplified and sequenced to identify the mutation sites. Finally, the bmoRs in the five colonies were mutated.
(§2) The OD600 values needed to be subtracted from the OD600 value of the blank LB culture. The excitation and emission wavelengths were set as 470 and 510 nm, respectively. The fluorescence values were normalized as the GFP/OD600 values. Besides, the GFP/OD600 values of the strain containing the plasmid pYH7 was regarded as the background fluorescence to be subtracted. Apparent Km values were estimated with Prism 9.5.0 through non-linear regression of the Michaelis-Menten equation. Finally, one or two effective mutants with orthogonal response towards n-pentanol or isopentanol were obtained.

[2] = biological target: T2, BmoR WT (Thauera butanivorans, UniProt A7MAQ9); assay: as above; type: cell-based, E. coli XL10-Gold; conditions: n = 3; read-out: Apparent Km
T2 construct: full-length BmoR, expressed from biosensor plasmid (PbmoR-bmoR; Pbmo-gfp) in E. coli; hexamer
T2 sequence (A7MAQ9 1-669): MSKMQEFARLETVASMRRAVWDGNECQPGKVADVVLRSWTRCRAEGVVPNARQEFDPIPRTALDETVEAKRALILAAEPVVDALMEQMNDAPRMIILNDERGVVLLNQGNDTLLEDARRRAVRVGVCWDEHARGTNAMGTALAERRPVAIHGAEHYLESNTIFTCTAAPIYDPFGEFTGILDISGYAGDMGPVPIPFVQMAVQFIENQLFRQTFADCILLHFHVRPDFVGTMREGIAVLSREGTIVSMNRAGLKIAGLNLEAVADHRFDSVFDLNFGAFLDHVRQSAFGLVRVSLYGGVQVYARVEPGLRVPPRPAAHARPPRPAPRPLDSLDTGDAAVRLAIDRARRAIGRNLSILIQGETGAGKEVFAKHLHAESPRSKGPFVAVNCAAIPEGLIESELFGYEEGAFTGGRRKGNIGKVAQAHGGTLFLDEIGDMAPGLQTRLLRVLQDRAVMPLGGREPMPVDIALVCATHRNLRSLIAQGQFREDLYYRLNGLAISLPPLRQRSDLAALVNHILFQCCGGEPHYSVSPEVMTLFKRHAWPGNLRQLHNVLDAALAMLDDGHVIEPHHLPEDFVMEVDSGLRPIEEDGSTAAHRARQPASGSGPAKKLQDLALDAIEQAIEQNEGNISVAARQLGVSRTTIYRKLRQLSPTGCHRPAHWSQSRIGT
Description: as §1, §2

[3] = biological target: T3, BmoR WT (fusion with sfGFP) (Thauera butanivorans, UniProt A7MAQ9); assay: MicroScale Thermophoresis of sfGFP-fused BmoR in E. coli BL21(DE3) lysate supernatant, 16-point ligand dilution in assay buffer with 1 % DMSO, incubated at 37 °C for 15 min.; type: binding; conditions: n = 3
T3 construct: SUMO-BmoR-TEV-sfGFP-His fusion, E. coli BL21(DE3) lysate supernatant
T3 sequence (A7MAQ9 1-669): T2 sequence (A7MAQ9 1-669)
Description: (§3) Plasmids pWT-SUMO-BmoR-TEV-sfGFP-His, pWT-SUMO-BmoR^M94V/A117T/F163Y/F272L-TEV-sfGFP-His, and pWT-SUMO-BmoR^M94V/W128R/F272L-TEV-sfGFP-His were individually transformed into E. coli BL21(DE3). […] Subsequently, 100 µL of the seed culture was transferred to 100 mL LB medium and grown at 37 °C until the OD600 value reached 0.8. 0.1 mM IPTG was added into the culture, and the culture was incubated at 16 °C, 170 rpm for 12–18 h. 50 mL centrifuge tubes were used to centrifuge the culture at 5,000 rpm for 15 min to collect the cell pellets. The pellets were then resuspended in 15 mL of the binding buffer, and the cells were disrupted using the ultrasonic cell crusher. The mixture was then centrifuged at 10,000 rpm for 30 min to collect the supernatant. The Kd values of the wild-type BmoR and the mutants towards four SMs were measured by the MicroScale Thermophoresis (MST, Nanotemper) from Wuhan Bio-lab Biotechnology Co., Ltd.
(§4) A 10 µL aliquot of the supernatant was diluted three folds with the assay buffer. The MST sample chamber was opened, and the tray was removed. The diluted protein sample was aspirated using a capillary and placed in the corresponding slot of the tray. The information of the protein samples and assay bugger was input, and the type of capillary was selected. The excitation power was set to “Auto”, and MST power was set to “High”. The concentration of the samples was adjusted using the assay buffer to 1/3 for BmoR^WT, BmoR^M94V/A117T/F163Y/F272L and BmoR^M94V/W128R/F272L. The samples were diluted to 100 µL/2000 µM using the assay buffer. Two eight-well strips were prepared and labeled from 1st to 16th. 10 µL of the assay buffer (1 % DMSO) was added into the 2nd-16th tubes, while 20 µL of the prepared sample was added to the 1st tube. 10 µL from the 1st tube was sequentially diluted into the 2nd-16th tubes. Subsequently, 10 µL of the lysate was added to each tube and mixed thoroughly. The mixed samples were incubated at 37 °C for 15 min before aspirating with a capillary to load into the sample tray. The software was started to begin the experiment.

[4] = biological target: T4, BmoR A117T/F163Y (Thauera butanivorans, UniProt A7MAQ9, A117T/F163Y); assay: cell-based; design: species or system E. coli XL10-Gold; conditions: n = 3; read-out: Apparent Km
T4 construct: full-length BmoR, biosensor plasmid pWT-A117T/F163Y (PbmoR-bmoR; Pbmo-gfp)
Description: as §1
as §2, with “Finally, one or two effective mutants with orthogonal response towards n-pentanol or isopentanol were obtained.” left out

[5] = biological target: T5, BmoR M94V/W128R/F272L (fusion with sfGFP) (Thauera butanivorans, UniProt A7MAQ9, F272L/M94V/W128R); assay: MicroScale Thermophoresis of sfGFP-fused BmoR in E. coli BL21(DE3) lysate supernatant, 16-point ligand dilution in assay buffer with 1 % DMSO, incubated at 37 °C for 15 min.; type: binding; conditions: n = 3
T5 construct: SUMO-BmoR-TEV-sfGFP-His fusion, E. coli BL21(DE3) lysate supernatant
Description: as §3, §4

[6] = test system: Δ33; conditions: 40 mM
Description: (§5) A library of E. coli MG1655-derived strains with different genomic large-fragment deletions ranging from 14 to 143 kb was constructed and stored. To screen pentanol-tolerant strains, the strains from the library were inoculated into 3 mL LB medium and cultured at 37 °C for 8–10 h to obtain seed cultures. Subsequently, 50 µL of the seed culture was transferred to 5 mL LB medium in the presence of 20 mM n-pentanol or isopentanol and grown at 37 °C with 220 rpm for 12 h. A microplate reader (BioTek Cytation 3) was used to detect the OD600 values.

[7] = test system: Δ29; conditions: equivalent isopentanol stress (40 mM)
Description: as §5

[8] = biological target: T6, BmoR M94V/A117T/F163Y/F272L (fusion with sfGFP) (Thauera butanivorans, UniProt A7MAQ9, A117T/F163Y/F272L/M94V); assay: MicroScale Thermophoresis of sfGFP-fused BmoR in E. coli BL21(DE3) lysate supernatant, 16-point ligand dilution in assay buffer with 1 % DMSO, incubated at 37 °C for 15 min.; type: binding; conditions: n = 3
T6 construct: SUMO-BmoR-TEV-sfGFP-His fusion, E. coli BL21(DE3) lysate supernatant
Description: as §3, §4

[9] = test system: E. coli MG1655; assay: Tolerance of wild-type MG1655 to pentanols (OD600)
Description: To assess the tolerance of wild-type MG1655 to n-pentanol or isopentanol, the single colony of wild-type MG1655 was inoculated into 3 mL LB medium and cultured at 37 °C for 8–10 h to obtain the seed culture. 50 µL of the seed culture was transferred to 5 mL LB medium adding 0–100 mM n-pentanol or isopentanol and grown at 37 °C with 220 rpm for 12 h. A microplate reader (BioTek Cytation 3) was used to detect the OD600 values.

T1 sequence (A7MAQ9 entry or part of it W128R): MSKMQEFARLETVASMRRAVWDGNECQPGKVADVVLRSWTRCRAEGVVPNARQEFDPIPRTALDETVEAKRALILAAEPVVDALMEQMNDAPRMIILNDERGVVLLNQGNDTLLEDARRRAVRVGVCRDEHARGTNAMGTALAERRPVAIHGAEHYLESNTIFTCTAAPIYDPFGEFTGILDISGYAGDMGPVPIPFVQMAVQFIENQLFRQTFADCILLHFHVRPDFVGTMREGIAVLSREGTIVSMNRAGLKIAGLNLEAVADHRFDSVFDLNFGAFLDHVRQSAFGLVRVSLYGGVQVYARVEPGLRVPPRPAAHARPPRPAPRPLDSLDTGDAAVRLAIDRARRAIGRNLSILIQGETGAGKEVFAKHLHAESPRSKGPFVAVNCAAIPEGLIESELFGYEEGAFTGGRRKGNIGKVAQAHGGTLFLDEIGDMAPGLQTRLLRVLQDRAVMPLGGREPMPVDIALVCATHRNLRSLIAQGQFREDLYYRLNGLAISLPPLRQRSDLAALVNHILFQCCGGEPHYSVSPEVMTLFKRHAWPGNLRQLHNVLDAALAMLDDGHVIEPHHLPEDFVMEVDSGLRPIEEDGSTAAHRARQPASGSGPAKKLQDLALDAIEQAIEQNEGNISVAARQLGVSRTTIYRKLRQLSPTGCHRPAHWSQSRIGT
T4 sequence (A7MAQ9 entry or part of it A117T/F163Y): as the sequence (A7MAQ9 entry or part of it W128R) above, with A117T, R128W, F163Y counted along it
T5 sequence (A7MAQ9 entry or part of it M94V/W128R/F272L): as the sequence (A7MAQ9 entry or part of it W128R) above, with M94V, F272L counted along it
T6 sequence (A7MAQ9 entry or part of it M94V/A117T/F163Y/F272L): as the sequence (A7MAQ9 entry or part of it W128R) above, with M94V, A117T, R128W, F163Y, F272L counted along it

Compound	EC50 [1] [mM]	EC50 [2] [mM]	Kd [3] [µM]	EC50 [4] [mM]	further results
CC(C)CO [Isobutanol, 2-methyl-1-propanol]	63.3	8.75	11.8	22.3	–
CC(C)CCO [Isopentanol, 3-methyl-1-butanol]	58.2	3.99	0.0938	–	Kd [5]: 0.0261 µM
CC(C)CCO [isopentanol]	–	–	–	–	fold increase of OD600 / biomass compared to the wild type [6]: 1.34 fold; fold higher biomass accumulation than the wild type [7]: 1.58 fold
CCCCCO [n-Pentanol, 1-pentanol]	–	5.09	0.106	59.5	Kd [8]: 0.322 mM
CCCCCO [n-pentanol]	–	–	–	–	fold reduction of OD600 ([9]; 20 mM): 2.67 fold; OD600 of wild-type MG1655 ([9]; 20 mM, 12 h): 0.420 ± 0.032; growth of wild-type MG1655 (in words) ([9]; 60 mM): failing to grow
